Article PMC3438226 (Bioorganic & medicinal chemistry, 2012)

Tests used:
[1] = target: T1, E. coli MTAN (Escherichia coli, UniProt P0AF12); assay type: biochemical
[2] = target: T2, human MTAP (Homo sapiens, UniProt Q13126); test: Inhibition of phosphorolysis of MTA catalysed by human MTAP; assay type: biochemical
T2 sequence (Q13126 1-283): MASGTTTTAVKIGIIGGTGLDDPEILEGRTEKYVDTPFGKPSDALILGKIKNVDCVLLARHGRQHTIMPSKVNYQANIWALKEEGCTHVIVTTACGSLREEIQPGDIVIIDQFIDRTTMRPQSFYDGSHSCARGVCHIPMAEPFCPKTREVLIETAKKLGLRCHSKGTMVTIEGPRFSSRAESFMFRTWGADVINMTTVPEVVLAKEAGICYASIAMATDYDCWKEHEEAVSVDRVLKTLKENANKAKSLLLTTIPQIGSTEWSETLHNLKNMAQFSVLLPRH

[3] = target: T3, N. meningitidis MTAN (Neisseria meningitidis, UniProt Q9K054); test: Inhibition of hydrolysis of MTA catalysed by N. meningitidis MTAN; assay type: biochemical
[4] = target: T1, E. coli MTAN; conditions: read-out: Ki* E. coli MTAN; Ki* value; cited from earlier work
[5] = target: T3, N. meningitidis MTAN; conditions: read-out: Ki* N. men. MTAN; Ki* value; cited from earlier work

T1 sequence (P0AF12 whole entry): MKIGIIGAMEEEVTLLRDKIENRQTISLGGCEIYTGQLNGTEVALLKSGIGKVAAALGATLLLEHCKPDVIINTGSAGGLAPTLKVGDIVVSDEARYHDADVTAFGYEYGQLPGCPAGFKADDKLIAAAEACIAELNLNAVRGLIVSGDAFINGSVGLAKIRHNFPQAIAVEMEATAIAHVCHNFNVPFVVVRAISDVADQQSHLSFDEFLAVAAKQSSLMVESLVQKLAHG

CSCC(CO)CNCc1c[nH]c2c(N)ncnc12 (racemic) [(±)-25]
times weaker inhibitor than 17 I ([1]; E. coli MTAN): 1.5 fold
weaker binding affinity compared with 4 ([1]; E. coli MTAN): ~180 fold
weaker binding affinity compared with 4 [2]: approximately 110 fold
difference in binding affinity compared with 4 ([3]; N. meningitidis MTAN): 9 fold

CSC[C@@H](CN(C)Cc1c[nH]c2c(N)ncnc12)[C@@H](O)CO (racemic) [(±)-68]
loss of binding affinity relative to (±)-65 ([1]; E. coli MTAN, N-methylation): 250 fold
improvement of inhibition relative to (±)-65 ([2]; N-methylation): about 3 fold
loss in activity relative to (±)-65 ([3]; N. meningitidis MTAN, N-methylation): ~12 fold

CSC[C@H](O)[C@@H](CO)CN(C)Cc1c[nH]c2c(N)ncnc12 (racemic) [(±)-72]
gain in binding affinity relative to (±)-68 ([1]; E. coli MTAN): ~6 fold
reduction in binding affinity relative to (±)-68 [2]: ~9 fold
reduction in binding affinity relative to (±)-68 ([3]; N. meningitidis MTAN): approximately 2 fold

CSC[C@H](O)[C@@H](O)CN(C)Cc1c[nH]c2c(N)ncnc12 (racemic) [(±)-78]
increase in potency relative to (±)-72 ([1]; bacterial MTANs (E. coli)): approximately 2 fold
loss in activity relative to (±)-72 [2]: ~4 fold
increase in potency relative to (±)-72 ([3]; bacterial MTANs (N. meningitidis)): approximately 2 fold

CSC[C@@H](O)[C@@H](CO)NCc1c[nH]c2c(N)ncnc12 [Compound 33]
times weaker inhibitor than 17 I ([1]; E. coli MTAN): about 4 fold

CSC[C@@H](O)CNCc1c[nH]c2c(N)ncnc12 [Compound 54]
drop in binding affinity relative to (±)-25 ([1]; E. coli MTAN): ~110 fold

CSC[C@H](CO)N[C@H](CO)c1c[nH]c2c(N)ncnc12 [Compound 79]
loss of activity relative to 3 ([1]; E. coli MTAN, cleavage of 2,3 C-C bond of 3): 21,500 fold

(1S)-1-(9-deazaadenin-9-yl)-1,4-dideoxy-1,4-imino-5-methylthio-D-ribitol [Compound 3]
Ki [4]: 0.08 ± 0.02 nM
Ki [5]: 0.36 nM
